According to patent US5053070A, “Pyrimidine derivatives, preparation processes thereof, herbicide containing the same, and herbicidal compositions containing the same along with other active ingredient” (Mitsui Toatsu Chemicals, Incorporated, priority 1988, dated 1991):

Legend:
cotton = assay: Upland foliar application test (Test 3), crop injury; assay type: in vivo; conditions: 30 g ai/a, foliar spray at 2-3 leaves, 30th day
Procedure, shortened: (§1)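 Greenhouse pots, upland soil; seedlings at 2-3 leaves. Foliar ULV spray of water-diluted emulsion, 5 l/are. Injury/damage rated 30 d after spraying.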

soybean = assay: as above; assay type: in vivo; conditions: 30 g ai/a, foliar spray at 2-3 leaves, 30th day
Procedure, shortened: as §1

peanut = assay: as above; assay type: in vivo; conditions: 30 g ai/a, foliar spray at 2-3 leaves, 30th day
Procedure, shortened: as §1

[1] = system: ALS (acetolactate syntase); assay: ALS enzyme assay (Test 1); assay type: biochemical, barnyardgrass; conditions: 1,000 ppm (0.5 mg/0.5 ml)
Procedure, shortened: (§2)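 Partially purified ALS from dark-grown pea and barnyardgrass seedlings incubated 1 h at 30° C with pyruvate, TPP, MgCl2 and FAD. Compounds tested at 1,000 ppm (0.5 mg/0.5 ml). Acetoin formed detected colorimetrically at 525 nm via creatine/α-naphthol, relative to blank and acid-stopped controls.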

[2] = system: ALS (acetolactate syntase); assay: ALS enzyme assay (Test 1); assay type: biochemical, pea; conditions: 1,000 ppm (0.5 mg/0.5 ml)
Procedure, shortened: as §2

rice [3] = assay: Treatment of soil under submerged condition, pre-emergence (Test 4), injury; assay type: in vivo; conditions: 30 g ai/a granule, 30 days later
Procedure, shortened: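 Scores reflect weed emergence and rice injury observed 30 days after a pre-emergence granule treatment. The granule, holding a predetermined amount of test composition, went onto submerged soil pots one day after sowing weeds and transplanting 2–3-leaf rice seedlings.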

green foxtail = assay: Upland foliar application test (Test 3); assay type: in vivo; conditions: 30 g ai/a, foliar spray at 2-3 leaves, 30th day
Procedure, shortened: as §1

redroot pigweed = assay: Upland foliar application test (Test 3); assay type: in vivo; conditions: 30 g ai/a, foliar spray at 2-3 leaves, 30th day
Procedure, shortened: as §1

foxtail meadow = assay: Upland foliar application test (Test 3); assay type: in vivo; conditions: 30 g ai/a, foliar spray at 2-3 leaves, 30th day
Procedure, shortened: as §1

johnsongrass = assay: Upland foliar application test (Test 3); assay type: in vivo; conditions: 30 g ai/a, foliar spray at 2-3 leaves, 30th day
Procedure, shortened: as §1

large crabgrass = assay: Upland foliar application test (Test 3); assay type: in vivo; conditions: 30 g ai/a, foliar spray at 2-3 leaves, 30th day
Procedure, shortened: as §1

barnyardgrass [4] = assay: Upland foliar application test (Test 3); assay type: in vivo; conditions: 30 g ai/a, foliar spray at 2-3 leaves, 30th day
Procedure, shortened: as §1

common lambsquarters = assay: Upland foliar application test (Test 3); assay type: in vivo; conditions: 30 g ai/a, foliar spray at 2-3 leaves, 30th day
Procedure, shortened: as §1

rice [5] = assay: Treatment of soil under submerged condition, post-emergence (Test 5), injury; assay type: in vivo; conditions: 30 g ai/a granule, 30 days later
Procedure, shortened: (§3)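 Weeds seeded or tubers planted in flooded soil in Wagner pots, with 2–3-leaf rice seedlings transplanted in pairs and grown in greenhouse. At barnyardgrass two-leaf stage, pots received a granule of the test composition at a predetermined amount. Weed emergence and rice injury were scored 30 days later.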

Sagittaria pygmaea = assay: Treatment of soil under submerged condition, post-emergence (Test 5); assay type: in vivo; conditions: 30 g ai/a granule, 30 days later
Procedure, shortened: as §3

bulrush = assay: as above; assay type: in vivo; conditions: 30 g ai/a granule, 30 days later
Procedure, shortened: as §3

barnyardgrass [6] = assay: as above; assay type: in vivo; conditions: 30 g ai/a granule, post-emergence (barnyardgrass two-leaf stage), 30 days later
Procedure, shortened: as §3

SMILES	Inhibitory activity (%) Barnyardgrass [1]	Inhibitory activity (%) Pea [2]	Injury Cotton (cotton)	Injury Soybean (soybean)	Injury Peanut (peanut)	Injury Rice (rice [3])	Herbicidal effects Green foxtail (green foxtail)	Herbicidal effects Redroot pigweed (redroot pigweed)	Herbicidal effects Foxtail meadow (foxtail meadow)	Herbicidal effects Johnsongrass (johnsongrass)	Herbicidal effects Large crabgrass (large crabgrass)	Herbicidal effects Barnyardgrass (barnyardgrass [4])	Herbicidal effects Common lambsquarters (common lambsquarters)	Injury Rice (rice [5])	Herbicidal effects Sagittaria Pygmaea (Sagittaria pygmaea)	Herbicidal effects Bulrush (bulrush)	Herbicidal effects Barnyardgrass (barnyardgrass [6])
COc1cc(OC)nc(Oc2ccccc2C=NOCc2ccc(Cl)cc2Cl)n1 [Compound No. 17]	15%	0%	0 (91-100 (No damages))	0 (91-100 (No damages))	0 (91-100 (No damages))	0 (91-100 (No damages))	5 (0-5 (Death))	4 (6-10 (Severe damages))	3 (11-40 (Medium damages))	5 (0-5 (Death))	3 (11-40 (Medium damages))	3 (11-40 (Medium damages))	4 (6-10 (Severe damages))	0 (91-100 (No damages))	3 (11-40 (Medium damages))	4 (6-10 (Severe damages))	3 (11-40 (Medium damages))
COc1cc(OC)nc(Oc2ccccc2C=NOCC=Cc2cccc(C)c2)n1 [Compound No. 34, 0-(3-methylcinnamyl)-2-(4,6-dimethoxy-2-pyrimidinyloxy)benzaldoxime]	91%	0%	0 (91-100 (No damages))	0 (91-100 (No damages))	0 (91-100 (No damages))	0 (91-100 (No damages))	5 (0-5 (Death))	4 (6-10 (Severe damages))	5 (0-5 (Death))	5 (0-5 (Death))	4 (6-10 (Severe damages))	5 (0-5 (Death))	4 (6-10 (Severe damages))	1 (71-90 (Slight damages))	3 (11-40 (Medium damages))	4 (6-10 (Severe damages))	5 (0-5 (Death))
C=CC(C)ON=Cc1ccccc1Oc1nc(OC)cc(OC)n1 (stereo not drawn) [Compound No. 2]	21%	0%	0 (91-100 (No damages))	0 (91-100 (No damages))	0 (91-100 (No damages))	1 (71-90 (Slight damages))	5 (0-5 (Death))	4 (6-10 (Severe damages))	5 (0-5 (Death))	5 (0-5 (Death))	5 (0-5 (Death))	5 (0-5 (Death))	4 (6-10 (Severe damages))	0 (91-100 (No damages))	5 (0-5 (Death))	5 (0-5 (Death))	5 (0-5 (Death))

Continued, in another order:

Inhibitory activity (%) Barnyardgrass [1]	Inhibitory activity (%) Pea [2]	SMILES	Injury Cotton (cotton)	Injury Soybean (soybean)	Injury Peanut (peanut)	Injury Rice (rice [3])	Herbicidal effects Green foxtail (green foxtail)	Herbicidal effects Redroot pigweed (redroot pigweed)	Herbicidal effects Foxtail meadow (foxtail meadow)	Herbicidal effects Johnsongrass (johnsongrass)	Herbicidal effects Large crabgrass (large crabgrass)	Herbicidal effects Barnyardgrass (barnyardgrass [4])	Herbicidal effects Common lambsquarters (common lambsquarters)	Injury Rice (rice [5])	Herbicidal effects Sagittaria Pygmaea (Sagittaria pygmaea)	Herbicidal effects Bulrush (bulrush)	Herbicidal effects Barnyardgrass (barnyardgrass [6])
39%	0%	CCCC=CCON=Cc1ccccc1Oc1nc(OC)cc(OC)n1 [compound 25]	0 (91-100 (No damages))	0 (91-100 (No damages))	0 (91-100 (No damages))	1 (71-90 (Slight damages))	5 (0-5 (Death))	4 (6-10 (Severe damages))	5 (0-5 (Death))	5 (0-5 (Death))	5 (0-5 (Death))	4 (6-10 (Severe damages))	4 (6-10 (Severe damages))	1 (71-90 (Slight damages))	3 (11-40 (Medium damages))	5 (0-5 (Death))	4 (6-10 (Severe damages))
91%	0%	COc1cccc(C=CCON=Cc2ccccc2Oc2nc(OC)cc(OC)n2)c1 [compound 38]	0 (91-100 (No damages))	0 (91-100 (No damages))	0 (91-100 (No damages))	0 (91-100 (No damages))	5 (0-5 (Death))	4 (6-10 (Severe damages))	4 (6-10 (Severe damages))	5 (0-5 (Death))	5 (0-5 (Death))	5 (0-5 (Death))	4 (6-10 (Severe damages))	1 (71-90 (Slight damages))	4 (6-10 (Severe damages))	5 (0-5 (Death))	5 (0-5 (Death))
17%	0%	COc1cc(OC)nc(Oc2ccccc2C=NOC(C)C)n1 [compound 6]	0 (91-100 (No damages))	0 (91-100 (No damages))	0 (91-100 (No damages))	0 (91-100 (No damages))	5 (0-5 (Death))	4 (6-10 (Severe damages))	5 (0-5 (Death))	5 (0-5 (Death))	3 (11-40 (Medium damages))	4 (6-10 (Severe damages))	4 (6-10 (Severe damages))	0 (91-100 (No damages))	3 (11-40 (Medium damages))	4 (6-10 (Severe damages))	4 (6-10 (Severe damages))
